Laboratory results: patent US20240317721A1, “PYRAZOLYL DERIVATIVES AS INHIBITORS OF THE KRAS MUTANT PROTEIN” (NOVARTIS AG, priority 2021, published 2024)

Target: KRasG12C (M1-K169, biotinylated on the N-terminus) (Homo sapiens (Human), UniProt P01116, G12C)
Assay: Covalent competition assay: scintillation proximity assay (SPA) quantifying covalent modification of KRASG12C
Type: binding
Details: competition with radiolabeled covalent probe (Compound B/Compound A), 2 hours incubation, 10 nM KRasG12C
In short: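 Scintillation proximity readout after streptavidin bead capture (30 min) of biotinylated KRasG12C(M1-K169):GDP, 10 nM final, which was covalently labelled over 2 h by 25 nM radio-probe plus 475 nM cold probe unless blocked by compound.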

Compound | IC50 [nM]
C=CC(=O)N1CC2(CC(n3nc(N4CCN(CCOC)C[C@]4(C)C(F)F)c(-c4c(Cl)c(C)cc5[nH]ncc45)c3C)C2)C1 (single isomer, unassigned) [Example 178b] | 48
C=CC(=O)N1CC2(CC(n3nc(N4CC[C@@H](CN5CC6(CCN(C(C)=O)C6)C5)CC4(C)C)c(-c4c(Cl)c(Cl)cc5[nH]ncc45)c3C)C2)C1 (single isomer, unassigned) [Example 268a] | 789
C=CC(=O)N1CC2(CC(n3nc(N4CC[C@@H](CN5C6CCC5CN(C(C)=O)C6)CC4(C)C)c(-c4c(Cl)c(Cl)cc5[nH]ncc45)c3C)C2)C1 (single isomer, unassigned) [Example 318b] | 7
C=CC(=O)N1CC2(CC(n3nc(N4CCN(CC(C)(C)O)CC45CCC5)c(-c4c(Cl)c(F)cc5[nH]ncc45)c3C)C2)C1 (single isomer, unassigned) [Example 167a, 1-(6-(4-(5-chloro-6-fluoro-1H-indazol-4-yl)-3-(8-(2-hydroxy-2-methylpropyl)-5,8-diazaspiro[3.5]nonan-5-yl)-5-methyl-1H-pyrazol-1-yl)-2-azaspiro[3.3]heptan-2-yl)prop-2-en-1-one] | > 5000
C=CC(=O)N1CC2(CC(n3nc(N4CCN(C[C@@H]5COCCO5)C[C@]4(C)CC)c(-c4c(Cl)cnc5[nH]ncc45)c3C)C2)C1 (single isomer, unassigned) [Example 81b] | 585
C=CC(=O)N1CC2(CC(n3nc(N4CC[C@@H](CN5CCCC56CN(C(C)=O)C6)CC4(C)C)c(-c4c(Cl)c(Cl)cc5[nH]ncc45)c3C)C2)C1 (single isomer, unassigned) [Example 276a] | 3400
C=CC(=O)N1CC2(CC(n3nc(N4CCN(C[C@@H]5COCCO5)CC45CCC5)c(-c4c(Cl)c(C)cc5[nH]ncc45)c3C)C2)C1 (single isomer, unassigned) [Example 169b] | 12
C=CC(=O)N1CC2(CC(n3nc(N4CCN(C(C)=O)CC4(C)C)c(-c4c(C)c(C)cc5[nH]ncc45)c3C)C2)C1 (single isomer, unassigned) [Example 1a, 1-(6-(3-(4-Acetyl-2,2-dimethylpiperazin-1-yl)-4-(5,6-dimethyl-1H-indazol-4-yl)-5-methyl-1H-pyrazol-1-yl)-2-azaspiro[3.3]heptan-2-yl)prop-2-en-1-one] | 86
C=CC(=O)N1CC2(CC(n3nc(N4CCC(CN5CCN(C)CC5=O)CC4(C)C)c(-c4c(Cl)c(Cl)cc5[nH]ncc45)c3C)C2)C1 (single isomer, unassigned) [Example 240a, 1-((1-(1-(2-acryloyl-2-azaspiro[3.3]heptan-6-yl)-4-(5,6-dichloro-1H-indazol-4-yl)-5-methyl-1H-pyrazol-3-yl)-2,2-dimethylpiperidin-4-yl)methyl)-4-methylpiperazin-2-one] | 390
C=CC(=O)N1CC2(CC(n3nc(N4CCN(C5COC5)CC45CCC5)c(-c4c(C)c(O)cc(C)c4Cl)c3C)C2)C1 (single isomer, unassigned) [Example 49a, 1-(6-(4-(2-chloro-5-hydroxy-3,6-dimethylphenyl)-5-methyl-3-(8-(oxetan-3-yl)-5,8-diazaspiro[3.5]nonan-5-yl)-1H-pyrazol-1-yl)-2-azaspiro[3.3]heptan-2-yl)prop-2-en-1-one] | 1790
C=CC(=O)N1CC2(CC(n3nc(N4CCN(C[C@@H]5COCCO5)C[C@]4(C)CC)c(-c4c(O)cccc4Cl)c3C)C2)C1 [Example 111, 1-(6-(3-((S)-4-(((R)-1,4-dioxan-2-yl)methyl)-2-ethyl-2-methylpiperazin-1-yl)-4-(2-chloro-6-hydroxyphenyl)-5-methyl-1H-pyrazol-1-yl)-2-azaspiro[3.3]heptan-2-yl)prop-2-en-1-one] | 1700
C=CC(=O)N1CC2(CC(n3nc(N4CC[C@@H](CN5CC6(COCCN6C)C5)CC4(C)C)c(-c4c(Cl)c(Cl)cc5[nH]ncc45)c3C)C2)C1 (single isomer, unassigned) [Example 291a] | > 5000

Second part, the compound after the results:

IC50 [nM] | Compound
4500 | C=CC(=O)N1CC2(CC(n3nc(N4CC[C@@H](CN5CC6C5CCN6C5COC5)CC4(C)C)c(-c4c(Cl)c(Cl)cc5[nH]ncc45)c3C)C2)C1 (single isomer, unassigned) [Example 277a, 1-(6-(4-(5,6-dichloro-1H-indazol-4-yl)-3-((R)-2,2-dimethyl-4-(((1S*,5S*)-2-(oxetan-3-yl)-2,6-diazabicyclo[3.2.0]heptan-6-yl)methyl)piperidin-1-yl)-5-methyl-1H-pyrazol-1-yl)-2-azaspiro[3.3]heptan-2-yl)prop-2-en-1-one]
20 | C=CC(=O)N1CC2(CC(n3nc(N4CCC5(CN(C)CCO5)CC4(C)C)c(-c4c(Cl)c(C)cc5[nH]ncc45)c3C)C2)C1 (single isomer, unassigned) [Example 207b, 1-(6-(4-(5-chloro-6-methyl-1H-indazol-4-yl)-5-methyl-3-(4,8,8-trimethyl-1-oxa-4,9-diazaspiro[5.5]undecan-9-yl)-1H-pyrazol-1-yl)-2-azaspiro[3.3]heptan-2-yl)prop-2-en-1-one]
> 5000 | C=CC(=O)N1CC2(CC(n3nc(N4CCN(C5(C)COC5)CC45CCC5)c(-c4c(Cl)c(C)cc5[nH]ncc45)c3C)C2)C1 (single isomer, unassigned) [Example 191a, 1-(6-(4-(5-Chloro-6-methyl-1H-indazol-4-yl)-5-methyl-3-(8-(3-methyloxetan-3-yl)-5,8-diazaspiro[3.5]nonan-5-yl)-1H-pyrazol-1-yl)-2-azaspiro[3.3]heptan-2-yl)prop-2-en-1-one]
76 | C=CC(=O)N1CC2(CC(n3nc(N4CCC(C)(O)CC4(C)C)c(-c4c(Cl)c(C)cc5[nH]ncc45)c3C)C2)C1 (single isomer, unassigned) [Example 28a, 1-(6-(4-(5-chloro-6-methyl-1H-indazol-4-yl)-3-(4-hydroxy-2,2,4-trimethylpiperidin-1-yl)-5-methyl-1H-pyrazol-1-yl)-2-azaspiro[3.3]heptan-2-yl)prop-2-en-1-one]
> 5000 | C=CC(=O)N1CC2(CC(n3nc(N4CCC(CN5CCOCC5)C4(C)C)c(-c4c(Cl)c(Cl)cc5[nH]ncc45)c3C)C2)C1 (single isomer, unassigned) [Example 218b, 1-(6-(4-(5,6-dichloro-1H-indazol-4-yl)-3-(2,2-dimethyl-3-(morpholinomethyl)pyrrolidin-1-yl)-5-methyl-1H-pyrazol-1-yl)-2-azaspiro[3.3]heptan-2-yl)prop-2-en-1-one]
113 | C=CC(=O)N1CC2(CC(n3nc(N4CCOCC4(C)C)c(-c4c(Cl)c(C)cc5[nH]ncc45)c3C)C2)C1 (single isomer, unassigned) [Example 22b, 1-(6-(4-(5-chloro-6-methyl-1H-indazol-4-yl)-3-(3,3-dimethylmorpholino)-5-methyl-1H-pyrazol-1-yl)-2-azaspiro[3.3]heptan-2-yl)prop-2-en-1-one]
14 | C=CC(=O)N1CC2(CC(n3nc(N4CCC(N(C)[C@@H]5CCOC5)CC4(C)C)c(-c4c(Cl)c(C)cc5[nH]ncc45)c3C)C2)C1 (single isomer, unassigned) [Example 84b]
928 | C=CC(=O)N1CC2(CC(n3nc(N4CCC(CN5C[C@@H]6C[C@H]5CO6)CC4(C)C)c(-c4c(Cl)c(Cl)cc5[nH]ncc45)c3C)C2)C1 (single isomer, unassigned) [Example 217a]
24700 | C=CC(=O)N1CC2(CC(n3nc(N4CCN(C)CC45CCC5)c(-c4c(Cl)c(C)cc5[nH]ncc45)c3C)C2)C1 (single isomer, unassigned) [Example 55a, 1-(6-(4-(5-chloro-6-methyl-1H-indazol-4-yl)-5-methyl-3-(8-methyl-5,8-diazaspiro[3.5]nonan-5-yl)-1H-pyrazol-1-yl)-2-azaspiro[3.3]heptan-2-yl)prop-2-en-1-one]
> 5000 | C=CC(=O)N1CC2(CC(n3nc(N4CCN(C5COC5)CC45CCOC5)c(-c4c(Cl)c(C)cc5[nH]ncc45)c3C)C2)C1 (stereo not drawn) [Example 141a, 1-(6-(4-(5-chloro-6-methyl-1H-indazol-4-yl)-5-methyl-3-(9-(oxetan-3-yl)-2-oxa-6,9-diazaspiro[4.5]decan-6-yl)-1H-pyrazol-1-yl)-2-azaspiro[3.3]heptan-2-yl)prop-2-en-1-one]
10 | C=CC(=O)N1CC2(CC(n3nc(N4CC[C@@H](CN5CC6COCC(C5)O6)CC4(C)C)c(-c4c(Cl)c(Cl)cc5[nH]ncc45)c3C)C2)C1 (single isomer, unassigned) [Example 308b]
> 50000 | C=CC(=O)N1CC2(CC(n3nc(N4CCN(CCOC)CC4(C)C)c(-c4c(Cl)c(C)cc5[nH]ncc45)c3C)C2)C1 (single isomer, unassigned) [Example 170a, 1-(6-(4-(5-chloro-6-methyl-1H-indazol-4-yl)-3-(4-(2-methoxyethyl)-2,2-dimethylpiperazin-1-yl)-5-methyl-1H-pyrazol-1-yl)-2-azaspiro[3.3]heptan-2-yl)prop-2-en-1-one]
5 | C=CC(=O)N1CC2(CC(n3nc(N4CC[C@@H](CN5CCOC[C@@H]5CO)CC4(C)C)c(-c4c(Cl)c(Cl)cc5[nH]ncc45)c3C)C2)C1 (single isomer, unassigned) [Example 303b]
1600 | C=CC(=O)N1CC2(CC(n3nc(N4CCC(CN5CCN(C)C(=O)C5)CC4(C)C)c(-c4c(Cl)c(Cl)cc5[nH]ncc45)c3C)C2)C1 (single isomer, unassigned) [Example 239a, 4-((1-(1-(2-acryloyl-2-azaspiro[3.3]heptan-6-yl)-4-(5,6-dichloro-1H-indazol-4-yl)-5-methyl-1H-pyrazol-3-yl)-2,2-dimethylpiperidin-4-yl)methyl)-1-methylpiperazin-2-one]
170 | C=CC(=O)N1CC2(CC(n3nc(N4CCN(S(C)(=O)=O)CC4(C)C)c(-c4c(Cl)c(C)cc5[nH]ncc45)c3C)C2)C1 (single isomer, unassigned) [Example 126b, 1-(6-(4-(5-chloro-6-methyl-1H-indazol-4-yl)-3-(2,2-dimethyl-4-(methylsulfonyl)piperazin-1-yl)-5-methyl-1H-pyrazol-1-yl)-2-azaspiro[3.3]heptan-2-yl)prop-2-en-1-one]
